Structures can show the parent of a compound that is named as a salt.
Tests used:
[1] = tested on: LPA production in blood serum; assay: Inhibitory activity on LPA production in mouse blood serum; format: biochemical; settings: mouse blood serum (m), 18:1 LPC added
[2] = target: human ENPP2 (Homo sapiens (Human), UniProt Q13822); assay: Inhibitory activity on human ENPP2 (FS-3 assay); format: biochemical; settings: human ENPP2, FS-3 substrate, Table 2
Description: Two-fold dilution of each test compound solution (10 μM, 100% dimethyl sulfoxide) is carried out on 96-well V bottom plate (Costar 3363). After ten-fold dilution of each the test compound solution (100% dimethyl sulfoxide) with deionized distilled water, 10 μL of the diluted each compound solution (10% dimethyl sulfoxide) was aliquoted to a black flat bottom 96-well plate (Costar 3915).

SMILES: CCOc1nn(CC(=O)N2CCc3[nH]nnc3C2)cc1-c1cnc(NC2Cc3ccccc3C2)nc1 [Compound 61, 2-(4-{2-[(2,3-dihydro-1H-inden-2-yl)amino]pyrimidin-5-yl}-3-ethoxy-1H-pyrazol-1-yl)-1-{1H,4H,5H,6H,7H-[1,2,3]triazolo[4,5-c]pyridin-5-yl}ethan-1-one]
- IC50 [1]: 25 nM

SMILES: O=C(Cn1cc(-c2cnc(NC3Cc4ccccc4C3)nc2)c(CN2CCOCC2)n1)N1CCc2[nH]nnc2C1 [Compound 80, 2-(4-{2-[(2,3-dihydro-1H-inden-2-yl)amino]pyrimidin-5-yl}-3-(morpholin-4-ylmethyl)-1H-pyrazol-1-yl)-1-{1H,4H,5H,6H,7H-[1,2,3]triazolo[4,5-c]pyridin-5-yl}ethan-1-one]
- IC50 [1]: 6 nM
- IC50 [2]: < 1.56 nM

SMILES: O=C(Cn1cc(-c2cnc(NC3Cc4ccccc4C3)nc2)cn1)N1CCc2[nH]nnc2C1 [Compound 56, 2-(4-{2-[(2,3-dihydro-1H-inden-2-yl)amino]pyrimidin-5-yl}-1H-pyrazol-1-yl)-1-{1H,4H,5H,6H,7H-[1,2,3]triazolo[4,5-c]pyridin-5-yl}ethan-1-one]
- IC50 [1]: 13 nM
- IC50 [2]: 2.2 nM

SMILES: O=C(Cn1cc(-c2cnc(NC3Cc4ccccc4C3)nc2)c(CN2CCc3ccccc3C2)n1)N1CCc2[nH]nnc2C1 [Compound 84, 2-(4-{2-[(2,3-dihydro-1H-inden-2-yl)amino]pyrimidin-5-yl}-3-(1,2,3,4-tetrahydroisoquinolin-2-ylmethyl)-1H-pyrazol-1-yl)-1-{1H,4H,5H,6H,7H-[1,2,3]triazolo[4,5-c]pyridin-5-yl}ethan-1-one]
- IC50 [1]: 8 nM
- IC50 [2]: 2.8 nM

SMILES: CN(C)c1nn(CC(=O)N2CCc3[nH]nnc3C2)cc1-c1cnc(NC2Cc3ccccc3C2)nc1 [Compound 74, 2-(4-{2-[(2,3-dihydro-1H-inden-2-yl)amino]pyrimidin-5-yl}-3-(dimethylamino)-1H-pyrazol-1-yl)-1-{1H,4H,5H,6H,7H-[1,2,3]triazolo[4,5-c]pyridin-5-yl}ethan-1-one]
- IC50 [1]: 15 nM
- IC50 [2]: 1.7 nM

SMILES: O=C(O)c1ccc(COc2nn(CC(=O)N3CCc4[nH]nnc4C3)cc2-c2cnc(NC3Cc4ccccc4C3)nc2)cc1 [Compound 72, 4-{[(4-{2-[(2,3-dihydro-1H-inden-2-yl)amino]pyrimidin-5-yl}-1-(2-oxo-2-{1H,4H,5H,6H,7H-[1,2,3]triazolo[4,5-c]pyridin-5-yl}ethyl)-1H-pyrazol-3-yl)oxy]methyl}benzoic Acid]
- IC50 [1]: 42 nM
- IC50 [2]: 3.4 nM

SMILES: O=C(Cn1cc(-c2cnc(NC3Cc4ccccc4C3)nc2)c(OC2CNC2)n1)N1CCc2[nH]nnc2C1 [Compound 62, 2-[3-(azetidin-3-yloxy)-4-{2-[(2,3-dihydro-1H-inden-2-yl)amino]pyrimidin-5-yl}-1H-pyrazol-1yl]-1-{1H,4H,5H,6H,7H-[1,2,3]triazolo[4,5-c]pyridin-5-yl}ethan-1-one hydrochloride]
- IC50 [1]: 22 nM
- IC50 [2]: 2.4 nM

SMILES: O=C(Cc1nnc(-c2cnc(NC3Cc4ccccc4C3)nc2)o1)N1CCc2[nH]nnc2C1 [Compound 33, 2-(5-(2-((2,3-dihydro-1H-inden-2-yl)amino)pyrimidin-5-yl)-1,3,4-oxadiazol-2-yl)-1-(1,4,6,7-tetrahydro-5H-[1,2,3]triazolo[4,5-c]pyridin-5-yl)ethan-1-one]
- IC50 [2]: 2 nM

SMILES: O=C(Cn1cc(-c2ccc(NC3Cc4ccccc4C3)nc2)cn1)N1CCc2[nH]nnc2C1 [Compound 58, 2-(4-{6-[(2,3-dihydro-1H-inden-2-yl)amino]pyridin-3-yl}-1H-pyrazol-1-yl)-1-{1H,4H,5H,6H,7H-[1,2,3]triazolo[4,5-c]pyridin-5-yl}ethan-1-one]
- IC50 [2]: 3.5 nM

SMILES: CCc1c(-c2cnc(NC3Cc4ccccc4C3)nc2)cnn1CC(=O)N1CCc2[nH]nnc2C1 [Compound 78, 2-(4-{2-[(2,3-dihydro-1H-inden-2-yl)amino]pyrimidin-5-yl}-5-ethyl-1H-pyrazol-1-yl)-1-{1H,4H,5H,6H,7H-[1,2,3]triazolo[4,5-c]pyridin-5-yl}ethan-1-one]
- IC50 [2]: 2.4 nM

SMILES: O=C(Cn1cc(-c2cnc(NC3Cc4ccccc4C3)nc2)c(CN2CC=C(c3ccccc3)CC2)n1)N1CCc2[nH]nnc2C1 [Compound 86, 2-(4-{2-[(2,3-dihydro-1H-inden-2-yl)amino]pyrimidin-5-yl}-3-[(4-phenyl-1,2,3,6-tetrahydropyridin-1-yl)methyl]-1H-pyrazol-1-yl)-1-{3H,4H,5H,6H,7H-[1,2,3]triazolo[4,5-c]pyridin-5-yl}ethan-1-one]
- IC50 [2]: 3 nM

SMILES: O=C(Cn1cc(-c2cnc(NC3Cc4ccccc4C3)nc2)c(OCCN2CCOCC2)n1)N1CCc2[nH]nnc2C1 [Compound 66, 2-(4-{2-[(2,3-dihydro-1H-inden-2-yl)amino]pyrimidin-5-yl}-3-[2-(morpholin-4-yl)ethoxy]-1H-pyrazol-1-yl)-1-{1H,4H,5H,6H,7H-[1,2,3]triazolo[4,5-c]pyridin-5-yl}ethan-1-one]
- IC50 [1]: 12 nM
- IC50 [2]: 1.9 nM

SMILES: O=C1CNCCN1Cc1nn(CC(=O)N2CCc3[nH]nnc3C2)cc1-c1cnc(NC2Cc3ccccc3C2)nc1 [Compound 88, 1-[(4-{2-[(2,3-dihydro-1H-inden-2-yl)amino]pyrimidin-5-yl}-1-(2-oxo-2-{1H,4H,5H,6H,7H-[1,2,3]triazolo[4,5-c]pyridin-5-yl}ethyl)-1H-pyrazol-3-yl)methyl]piperazin-2-one]
- IC50 [2]: 4.1 nM

SMILES: CCN1CC(Oc2nn(CC(=O)N3CCc4[nH]nnc4C3)cc2-c2cnc(NC3Cc4ccccc4C3)nc2)C1 [Compound 68, 2-(4-{2-[(2,3-dihydro-1H-inden-2-yl)amino]pyrimidin-5-yl}-3-[(1-ethylazetidin-3-yl)oxy]-1H-pyrazol-1-yl)-1-{1H,4H,5H,6H,7H-[1,2,3]triazolo[4,5-c]pyridin-5-yl}ethan-1-one]
- IC50 [1]: 32 nM
- IC50 [2]: 1.8 nM

SMILES: CCN1CCC(Oc2nn(CC(=O)N3CCc4[nH]nnc4C3)cc2-c2cnc(NC3Cc4ccccc4C3)nc2)CC1 [Compound 70, 2-(4-{2-[(2,3-dihydro-1H-inden-2-yl)amino]pyrimidin-5-yl}-3-[(1-ethylpiperidin-4-yl)oxy]-1H-pyrazol-1-yl)-1-{1H,4H,5H,6H,7H-[1,2,3]triazolo[4,5-c]pyridin-5-yl}ethan-1-one]
- IC50 [1]: 11 nM
- IC50 [2]: 2.3 nM

SMILES: O=C(Cn1cnc(-c2cnc(NC3Cc4ccccc4C3)nc2)c1)N1CCc2[nH]nnc2C1 [Compound 60, 2-(4-{2-[(2,3-dihydro-1H-inden-2-yl)amino]pyrimidin-5-yl}-1H-imidazol-1-yl)-1-{1H,4H,5H,6H,7H-[1,2,3]triazolo[4,5-c]pyridin-5-yl}ethan-1-one]
- IC50 [1]: 11 nM
- IC50 [2]: 1.8 nM

SMILES: O=C(Cn1cc(-c2cnc(NC3Cc4ccccc4C3)nc2)c(C(=O)N2CCCCC2)n1)N1CCc2[nH]nnc2C1 [Compound 76, 2-(4-{2-[(2,3-dihydro-1H-inden-2-yl)amino]pyrimidin-5-yl}-3-(piperidine-1-carbonyl)-1H-pyrazol-1-yl)-1-{1H,4H,5H,6H,7H-[1,2,3]triazolo[4,5-c]pyridin-5-yl}ethan-1-one]
- IC50 [2]: 3 nM

SMILES: O=C(Cc1nnc(-c2cnc(NC3Cc4ccccc4C3)nc2)[nH]1)N1CCc2[nH]nnc2C1 [Compound 52, 2-(5-{2-[(2,3-dihydro-1H-inden-2-yl)amino]pyrimidin-5-yl}-4H-1,2,4-triazol-3-yl)-1-{1H,4H,5H,6H,7H-[1,2,3]triazolo[4,5-c]pyridin-5-yl}ethan-1-one]
- IC50 [2]: 3.6 nM

SMILES: O=C(O)COc1nn(CC(=O)N2CCc3[nH]nnc3C2)cc1-c1cnc(NC2Cc3ccccc3C2)nc1 [Compound 73, 2-[(4-{2-[(2,3-dihydro-1H-inden-2-yl)amino]pyrimidin-5-yl}-1-(2-oxo-2-{1H,4H,5H,6H,7H-[1,2,3]triazolo[4,5-c]pyridin-5-yl}ethyl)-1H-pyrazol-3-yl)oxy]acetic Acid]
- IC50 [1]: 69 nM
- IC50 [2]: 3.7 nM

SMILES: CN1C(=O)N(c2ccc3[nH]nnc3c2)C2(CCN(C(=O)c3cnc(NCc4cccc(OC(F)(F)F)c4)nc3)CC2)C1=O [Compound 9, 1-(1H-1,2,3-benzotriazol-5-yl)-3-methyl-8[2-({[3-(trifluoromethoxy)phenyl]methyl}amino)pyrimidine-5-carbonyl]-1,3,8-triazaspiro[4,5]-decane-2,4-dione]
- IC50 [2]: 9 nM

SMILES: O=C(Cn1cc(-c2cnc(NC3Cc4ccccc4C3)nc2)c(CN2CCc3ccccc32)n1)N1CCc2[nH]nnc2C1 [Compound 83, 2-(4-{2-[(2,3-dihydro-1H-inden-2-yl)amino]pyrimidin-5-yl}-3-(2,3-dihydro-1H-indol-1-ylmethyl)-1H-pyrazol-1-yl)-1-{1H,4H,5H,6H,7H-[1,2,3]triazolo[4,5-c]pyridin-5-yl}ethan-1-one]
- IC50 [2]: 2.1 nM

SMILES: O=C(Cc1nnc(-c2cnc(NC3Cc4ccccc4C3)nc2)o1)Nc1ccc(C(=O)O)cc1 [Compound 50, 4-[2-(5-{2-[(2,3-dihydro-1H-inden-2-yl)amino]pyrimidin-5-yl}-1,3,4-oxadiazol-2-yl)acetamido]benzoic Acid]
- IC50 [2]: 4.5 nM

SMILES: CN1CCN(Cc2nn(CC(=O)N3CCc4[nH]nnc4C3)cc2-c2cnc(NC3Cc4ccccc4C3)nc2)CC1=O [Compound 87, 4-[(4-{2-[(2,3-dihydro-1H-inden-2-yl)amino]pyrimidin-5-yl}-1-(2-oxo-2-{1H,2H,3H,4H,5H,6H,7H-[1,2,3]triazolo[4,5-c]pyridin-5-yl}ethyl)-1H-pyrazol-3-yl)methyl]-1-methylpiperazin-2-one]
- IC50 [2]: 3.1 nM

SMILES: O=C(Cn1cc(-c2cnc(NC3Cc4ccccc4C3)nc2)c(CN2CCCCC2)n1)N1CCc2[nH]nnc2C1 [Compound 81, 2-(4-{2-[(2,3-dihydro-1H-inden-2-yl)amino]pyrimidin-5-yl}-3-(piperidin-1-ylmethyl)-1H-pyrazol-1-yl)-1-{1H,4H,5H,6H,7H-[1,2,3]triazolo[4,5-c]pyridin-5-yl}ethan-1-one]
- IC50 [1]: 5 nM
- IC50 [2]: < 1.56 nM

From patent US11548883B2, “Compounds as autotaxin inhibitors and pharmaceutical compositions comprising the same” (LegoChem Biosciences, Inc., priority 2017, dated 2023)
